Source: US7893072B2, “Trp-p8 active compounds and therapeutic treatment methods” (Genentech, Inc., priority 2003, dated 2011)
Read-outs that look alike come from different tables or passages of the source.

Columns and labels:
Trp-p8 = target: T1, Trp-p8 (Homo sapiens, UniProt Q7Z2W7); assay: Calcium ion uptake / flux (FLIPR) in cells expressing Trp-p8; assay type: cell-based; details: for Peak (FLIPR): maximum calcium ion flux at 10 microM
T1 construct: expressed in transfected cells; host or cells: 293 and PC3 cells expressing Trp-p8 (non-expressing controls: 293, PC3, PC3/neo)
Text: General methods and materials disclosed in R. Skyryma, et al., J. Physiology, 2000, 527.1, 71-83, for assessing and measuring calcium ion flux or cell uptake, and induction of apoptosis were adapted for use in the present disclosure and as illustrated herein. Other test methods and procedures such as described below, including cell line culturing, transfection, and in vivo and in vitro tumor growth inhibition, are readily apparent to one of ordinary skill in the art upon comprehending the disclosure.
Calcium ion uptake experiments were conducted as follows. Calcium uptake was measured for cells expressing Trp-p8 tumor antigen and for cells not expressing Trp-p8 tumor antigen after each cell line was contacted with cool-genic compounds of the present disclosure. […] Cells not expressing tumor antigen had essentially no observable calcium uptake over all of the cool-genic compound concentrations. […] Cell lines included non-expressing lines: 293, PC3, and PC3/neo; and tumor antigen expressing lines: […].

[1] = system: 293 cells expressing Trp-p8; assay: Human cell killing in vitro, 293 cells expressing Trp-p8; assay type: cell-based
Description: (§1) Human Cell Killing in vitro by Compounds that Activate Trp-p8. Referring to the Figures, in FIG. 1 the effectiveness of selected cool-genic compounds in human cell killing was evaluated. The order and potency of cool-genic compounds were compared in two related human cell lines, one was 293 cells expressing Trp-p8 and a second was matched 293 cells lacking (not expressing) Trp-p8 used as a control. There were about 50,000 cells per well at plating. The cool-genic compounds were added at plating. The cells were treated by exposing the cells to the individual compounds at varying concentrations over about 0.1 to about 1,000 microM for 72 hours. […] FIGS. 1A and 1C show the response of cells expressing Trp-p8 and treated with the indicated numbered or named coolgenic compounds. FIGS. 1B and 1D show the response of cells without (not expressing) Trp-p8 and also treated with the indicated coolgenic compounds. […] Compound IIa4-1 had the best kill (IC50<1 microM) for cells expressing Trp-p8.

PC3/Trp-p8 = PC3/Trp-p8 cell killing; assay type: cell-based, human
293/Trp-p8.clone 18 = assay: IC50 on 293/Trp-p8.clone 18; assay type: cell-based, human; details: read-out: IC50 293/Trp-p8.c18
Description: as §1

293/Trp-p8.clone 10 = assay: IC50 on 293/Trp-p8.clone 10; assay type: cell-based, human; details: read-out: IC50 293/Trp-p8.c10
Description: as §1

PC3/Trp-p8.clone 21 = assay: IC50 on PC3/Trp-p8.clone 21; assay type: cell-based; details: Homo sapiens, PC3/Trp-p8.clone 21, in duplicate

T1 sequence (Q7Z2W7 whole entry): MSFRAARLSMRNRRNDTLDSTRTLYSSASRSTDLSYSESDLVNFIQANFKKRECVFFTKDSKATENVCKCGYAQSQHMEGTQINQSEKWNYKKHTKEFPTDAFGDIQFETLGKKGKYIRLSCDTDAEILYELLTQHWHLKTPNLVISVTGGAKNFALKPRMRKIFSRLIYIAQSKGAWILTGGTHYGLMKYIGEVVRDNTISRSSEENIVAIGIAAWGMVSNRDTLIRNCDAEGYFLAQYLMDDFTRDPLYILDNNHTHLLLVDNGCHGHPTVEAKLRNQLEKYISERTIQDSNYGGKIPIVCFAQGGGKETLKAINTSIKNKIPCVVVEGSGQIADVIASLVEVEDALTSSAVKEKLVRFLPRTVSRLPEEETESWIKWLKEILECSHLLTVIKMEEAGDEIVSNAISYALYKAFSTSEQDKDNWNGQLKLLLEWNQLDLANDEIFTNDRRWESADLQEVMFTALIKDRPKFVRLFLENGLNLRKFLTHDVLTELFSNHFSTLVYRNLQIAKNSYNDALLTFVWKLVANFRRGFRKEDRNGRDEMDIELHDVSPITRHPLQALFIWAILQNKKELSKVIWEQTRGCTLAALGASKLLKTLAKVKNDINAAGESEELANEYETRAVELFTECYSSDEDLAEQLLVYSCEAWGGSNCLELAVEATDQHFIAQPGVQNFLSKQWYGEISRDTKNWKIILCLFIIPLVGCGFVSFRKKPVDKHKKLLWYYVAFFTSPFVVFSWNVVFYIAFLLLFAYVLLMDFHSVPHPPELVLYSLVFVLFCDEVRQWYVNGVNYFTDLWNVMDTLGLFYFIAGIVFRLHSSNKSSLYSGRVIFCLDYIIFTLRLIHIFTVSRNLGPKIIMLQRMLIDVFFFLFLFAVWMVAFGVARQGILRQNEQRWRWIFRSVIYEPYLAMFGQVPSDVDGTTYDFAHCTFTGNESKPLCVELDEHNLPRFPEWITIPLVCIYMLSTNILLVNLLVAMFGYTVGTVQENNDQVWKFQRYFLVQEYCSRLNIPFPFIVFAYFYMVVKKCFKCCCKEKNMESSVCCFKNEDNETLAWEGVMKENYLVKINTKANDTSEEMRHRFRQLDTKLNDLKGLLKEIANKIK

Row | Compound | Peak (FLIPR) (Trp-p8) | IC50 (293/Trp-p8.clone 18; Homo sapiens) [µM] | IC50 (293/Trp-p8.clone 10; Homo sapiens) [µM] | also measured
1 | COc1ccc(NC(=O)C2CC(C)CCC2C(C)C)cc1 (centres unmarked) [IIa4-1, 2-Isopropyl-5-methyl-cyclohexanecarboxylic acid(4-methoxy-phenyl)-amide] | 31,000 | 0.58 | 0.42 | calcium uptake (Trp-p8; cells expressing Trp-p8, about 0.0001 to about 10 microM): particularly high calcium uptake; 293/Trp-p8 Cell Killing [1]: Yes; IC50 ([1]; Homo sapiens, HEK293, 72 hours, about 50,000 cells per well, read-out: IC50 (kill) for cells expressing Trp-p8): < 1 µM; PC3/Trp-p8 Cell Killing (PC3/Trp-p8): Yes; IC50 (293/Trp-p8.clone 18): 0.45 µM; IC50 (PC3/Trp-p8.clone 21): 1.64 µM
2 | CC(C)[C@@H]1CC[C@@H](C)C[C@H]1C(=O)Nc1ccccc1 [IIa4-2] | – | 3.38 | 3.21 | –
3 | CC(C)[C@@H]1CC[C@@H](C)C[C@H]1C(=O)Nc1ccc(O)cc1 [IIa4-3] | – | 1.05 | 1.23 | IC50 (PC3/Trp-p8.clone 21): 4.27 µM
4 | CC(C)c1ccc(NC(=O)[C@@H]2C[C@H](C)CC[C@H]2C(C)C)cc1 [IIa4-4] | – | 0.98 | 0.76 | IC50 (PC3/Trp-p8.clone 21): 3.21 µM
5 | CC(C)[C@@H]1CC[C@@H](C)C[C@H]1C(=O)Nc1ccc(Cl)cc1 [IIa4-5] | – | 17.6 | 1.99 | –
6 | CC(C)[C@@H]1CC[C@@H](C)C[C@H]1C(=O)Nc1ccc(F)cc1 [IIa4-6] | – | 3.78 | 3.58 | –
7 | Cc1ccc(NC(=O)[C@@H]2C[C@H](C)CC[C@H]2C(C)C)cc1 [IIa4-7] | – | 1.14 | 1.21 | –
8 | CCc1ccc(NC(=O)[C@@H]2C[C@H](C)CC[C@H]2C(C)C)cc1 [IIa4-8] | – | 0.68 | 0.73 | –
9 | CC1CCC(C(C)C)C(C(=O)Nc2ccc(N3CCOCC3)cc2)C1 (centres unmarked) [IIa4-9, 2-Isopropyl-5-methyl-cyclohexanecarboxylic acid (4-morpholin-4-yl-phenyl)-amide] | – | 1.45 | 1.28 | –
10 | CCC(C)c1ccc(NC(=O)[C@@H]2C[C@H](C)CC[C@H]2C(C)C)cc1 (some centres unmarked) [IIa4-10, 2-Isopropyl-5-methyl-cyclohexanecarboxylic acid(4-sec-butyl-phenyl)-amide] | – | 1.08 | 3.59 | –
11 | CC(C)[C@@H]1CC[C@@H](C)C[C@H]1C(=O)Nc1ccc(C(C)(C)C)cc1 [IIa4-11, 2-Isopropyl-5-methyl-cyclohexanecarboxylic acid(4-tert-butyl-phenyl)-amide] | – | 1.41 | 1.23 | –
12 | CCCc1ccc(NC(=O)[C@@H]2C[C@H](C)CC[C@H]2C(C)C)cc1 [IIa4-12, 2-Isopropyl-5-methyl-cyclohexanecarboxylic acid(4-propyl-phenyl)-amide] | – | 4.93 | 5.65 | IC50 (PC3/Trp-p8.clone 21): 12.9 µM
13 | COc1ccc(NC(=O)[C@@H]2C[C@H](C)CC[C@H]2C(C)C)cc1F [IIa6-1] | – | 0.6 | 0.79 | –
14 | COc1ccc(NC(=O)C2CC(C)CCC2C(C)C)cc1Cl (centres unmarked) [IIa6-2, 2-Isopropyl-5-methyl-cyclohexanecarboxylic acid(3-chloro-4-methoxy-phenyl)-amide] | – | – | – | IC50 (293/Trp-p8.clone 18): 2.57 µM; IC50 (293/Trp-p8.clone 10): 3.1 µM
15 | CC1CCC(C(C)C)C(C(=O)Nc2ccc3c(c2)CCC3)C1 (centres unmarked) [IIa6-3, 2-Isopropyl-5-methyl-cyclohexanecarboxylic acid indan-5-ylamide] | – | 1.71 | 1.35 | –
16 | Cc1cc(NC(=O)[C@@H]2C[C@H](C)CC[C@H]2C(C)C)ccc1C(C)C [IIa6-4, 2-Isopropyl-5-methyl-cyclohexanecarboxylic acid(4-isopropyl-3-methyl-phenyl)-amide] | – | 4.37 | 5.05 | –
17 | COc1ccccc1NC(=O)[C@@H]1C[C@H](C)CC[C@H]1C(C)C [IIa8-1] | – | 17.6 | 16.7 | –
18 | COc1cccc(NC(=O)[C@@H]2C[C@H](C)CC[C@H]2C(C)C)c1 [IIa10-1] | – | 3.69 | 3.8 | –
19 | CC(C)[C@@H]1CC[C@@H](C)C[C@H]1C(=O)Nc1cccc(F)c1 [IIa10-2] | – | 2.91 | 6.31 | –
20 | COc1ccc(NC(=O)[C@@H]2C[C@H](C)CC[C@H]2C(C)C)c(C)c1 [IIa12-1] | – | 0.93 | 1.14 | –
21 | CCNC(=O)C1CC(C)CCC1C(C)C (centres unmarked) [IIb-1] | 25,000 | – | – | –
22 | CC1CCC(C(C)C)C(C(=O)NC(C)C)C1 (centres unmarked) [IIb-2] | 25,100 | – | – | 293/Trp-p8 Cell Killing [1]: Yes; PC3/Trp-p8 Cell Killing (PC3/Trp-p8): Yes
23 | CC1CCC(C(C)C)C(C(=O)NC(C)(C)CO)C1 (centres unmarked) [IIb-3] | 25,100 | – | – | 293/Trp-p8 Cell Killing [1]: Yes; PC3/Trp-p8 Cell Killing (PC3/Trp-p8): Yes
24 | CC1CCC(C(C)C)C(C(=O)NC(C)(C)C)C1 (centres unmarked) [IIb-4] | 25,100 | – | – | 293/Trp-p8 Cell Killing [1]: Yes
25 | CCC(C)NC(=O)C1CC(C)CCC1C(C)C (centres unmarked) [IIb-5] | 23,300 | – | – | –
26 | O=C1NC(c2cccc([N+](=O)[O-])c2)=CCN1c1ccccc1O [Icilin, 3-(2-Hydroxy-phenyl)-6-(3-nitro-phenyl)-3,4-dihydro-1H-pyrimidin-2-one, reference compound] | 20,000 | – | 79.2 | –

Further lines, with some results ahead:

Row | Peak (FLIPR) (Trp-p8) | Compound | IC50 (293/Trp-p8.clone 18; Homo sapiens) [µM] | IC50 (293/Trp-p8.clone 10; Homo sapiens) [µM] | also measured
27 | 9,600 | CC1CCC(C(C)C)C(C(=O)O)C1 (centres unmarked) [Compound V-1] | – | – | –
28 | 17,000 | CC1CCC(C(C)C)C(C(=O)OCCO)C1 (centres unmarked) [Compound V-2] | – | – | –
29 | 17,500 | CC1CCC(C(C)C)C(C(=O)OCCOCCO)C1 (centres unmarked) [Compound V-4] | – | – | –
30 | 5,000 | CNC(=O)C(C)(C(C)C)C(C)C [III-1] | – | – | –
31 | 31,000 | CCCCCCCP(=O)(C(C)CC)C(C)CC (centres unmarked) [IV-1] | – | – | 293/Trp-p8 Cell Killing [1]: Yes
32 | 29,000 | CCCCCP(=O)(C(C)CC)C(C)CC (centres unmarked) [IV-2] | – | – | –
33 | 22,000 | CCCCCCP(=O)(C(C)CC)C(C)CC (centres unmarked) [IV-3] | – | – | –
34 | 29,000 | CCOC(=O)CNC(=O)C1CC(C)CCC1C(C)C (centres unmarked) [XIII-1] | – | – | 293/Trp-p8 Cell Killing [1]: Yes; PC3/Trp-p8 Cell Killing (PC3/Trp-p8): Yes
35 | 25,000 | COC(=O)CNC(=O)C1CC(C)CCC1C(C)C (centres unmarked) [XIII-2] | – | – | –
